Measured values from paper PMC7594054, “Design, Synthesis and In Vitro Experimental Validation of Novel TRPV4 Antagonists Inspired by Labdane Diterpenes” (Marine Drugs, 2020).

How the values were obtained:
[1] = molecular target: T1, hTRPV1 (Homo sapiens, UniProt Q8NER1); assay: TRPV1 calcium influx assay (Fluo-4) in HEK-293 cells overexpressing human recombinant TRPV1; type: cell-based; conditions: for IC50: read-out: IC50 inh TRPV1
T1 construct: expressed in transfected cells; host or cells: HEK-293
T1 sequence (Q8NER1 whole entry): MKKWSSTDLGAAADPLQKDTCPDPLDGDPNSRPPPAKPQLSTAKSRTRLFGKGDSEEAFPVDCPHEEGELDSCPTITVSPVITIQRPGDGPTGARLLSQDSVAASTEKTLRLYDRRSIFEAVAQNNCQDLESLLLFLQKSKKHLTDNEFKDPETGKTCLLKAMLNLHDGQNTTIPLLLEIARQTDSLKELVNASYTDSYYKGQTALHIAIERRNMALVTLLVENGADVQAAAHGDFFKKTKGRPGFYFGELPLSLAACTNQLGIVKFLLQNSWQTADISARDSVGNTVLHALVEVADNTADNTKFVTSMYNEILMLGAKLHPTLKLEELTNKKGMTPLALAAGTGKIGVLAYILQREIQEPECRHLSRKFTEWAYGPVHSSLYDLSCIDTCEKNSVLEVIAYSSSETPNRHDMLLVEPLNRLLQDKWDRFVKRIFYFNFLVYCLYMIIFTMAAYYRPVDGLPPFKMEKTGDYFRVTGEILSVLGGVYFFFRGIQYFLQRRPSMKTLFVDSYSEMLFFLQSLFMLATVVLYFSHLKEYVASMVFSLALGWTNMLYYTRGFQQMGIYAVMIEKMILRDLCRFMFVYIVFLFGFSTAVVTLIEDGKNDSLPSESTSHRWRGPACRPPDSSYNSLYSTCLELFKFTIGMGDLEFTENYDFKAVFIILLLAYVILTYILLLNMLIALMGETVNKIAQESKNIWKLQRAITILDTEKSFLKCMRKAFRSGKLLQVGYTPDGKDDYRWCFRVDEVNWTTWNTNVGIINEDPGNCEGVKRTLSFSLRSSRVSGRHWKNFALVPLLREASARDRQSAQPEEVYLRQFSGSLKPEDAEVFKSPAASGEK

[2] = molecular target: T2, rTRPV4 (Rattus norvegicus, UniProt Q9ERZ8); assay: TRPV4 calcium influx assay (Fluo-4) in HEK-293 cells overexpressing rat recombinant TRPV4; type: cell-based; conditions: for IC50: against the effect of GSK1016790A (10 nM) after a 5-min pre-incubation, read-out: IC50 inh. TRPV4; for Efficacy %: as percent of the effect of ionomycin (4 µM), HEK-293 cells overexpressing rTRPV4, means ± SEM, n >= 3
T2 construct: expressed in transfected cells; host or cells: HEK-293
T2 sequence (Q9ERZ8 whole entry): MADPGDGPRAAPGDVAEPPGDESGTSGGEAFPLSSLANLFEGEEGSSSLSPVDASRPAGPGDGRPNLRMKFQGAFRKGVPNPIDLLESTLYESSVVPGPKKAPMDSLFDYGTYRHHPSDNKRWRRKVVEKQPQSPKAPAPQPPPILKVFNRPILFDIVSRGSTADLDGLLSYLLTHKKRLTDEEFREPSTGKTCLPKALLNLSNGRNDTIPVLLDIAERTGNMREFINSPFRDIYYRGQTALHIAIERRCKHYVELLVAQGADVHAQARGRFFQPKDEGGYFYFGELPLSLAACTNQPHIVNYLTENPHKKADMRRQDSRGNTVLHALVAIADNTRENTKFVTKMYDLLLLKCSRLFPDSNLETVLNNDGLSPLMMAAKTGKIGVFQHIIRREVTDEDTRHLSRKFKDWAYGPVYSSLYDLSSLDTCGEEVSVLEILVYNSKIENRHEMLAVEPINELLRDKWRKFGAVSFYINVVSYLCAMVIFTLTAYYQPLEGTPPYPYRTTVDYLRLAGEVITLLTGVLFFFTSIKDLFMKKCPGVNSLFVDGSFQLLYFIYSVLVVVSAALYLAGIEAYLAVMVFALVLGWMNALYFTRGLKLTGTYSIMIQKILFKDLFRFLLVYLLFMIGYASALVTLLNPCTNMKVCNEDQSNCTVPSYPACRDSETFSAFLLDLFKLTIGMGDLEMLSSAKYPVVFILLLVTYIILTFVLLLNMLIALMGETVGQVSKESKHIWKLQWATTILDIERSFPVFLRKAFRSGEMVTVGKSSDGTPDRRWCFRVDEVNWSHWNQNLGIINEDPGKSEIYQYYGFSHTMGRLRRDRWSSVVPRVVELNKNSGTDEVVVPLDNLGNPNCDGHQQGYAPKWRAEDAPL
Text: The interaction properties of all homodrimane-derived compounds 1–16, 18–19, and 22–25 with either TRPV type-4 or type-1 were studied in human embryonic kidney (HEK)-293 cells overexpressing either the rat recombinant type-4 (rTRPV4), which shares with the human orthologue ~95% of sequence identity, and the human recombinant type-1 (hTRPV1) channel, evaluating the changes in intracellular calcium levels. […] Cell fluorescence before and after the addition of various concentrations of test compounds was measured normalizing the effects against the response to ionomycin (4 μM). […] Dose-response curve fitting (sigmoidal dose-response variable slope) and parameter estimation were performed with Graph-Pad Prism8® (GraphPad Software Inc., San Diego, CA, USA). All determinations were performed at least in triplicate.

[3] = tested on: A549 cells; assay: MTT cytotoxicity assay, A549 cells; type: cell-based, human; conditions: A549 cells, 1, 5 and 25 μM, 24 h
Procedure: (§1) HeLa and A549 cells were seeded at 2 × 10^3 cells/cm^2 density in 24-well plastic plates. One day after plating, compounds 6 and 18 were added to the culture medium for 24 h. Cell viability was evaluated with the 3-(4,5-dimethylthiazol-2-yl)-2,5-diphenyltetrazolium bromide (MTT; 0.5 mg/mL; Sigma-Aldrich, Milan, Italy) reduction assay, and formazan salt formation upon MTT reduction by the mitochondria of living cells was detected spectrophotometrically at 595 nm according to published procedures.
(§2) Figure 2 Cell viability measured in HeLa and A549 cells treated for 24 h with increasing concentration of compound 6 (panel A, C) and 18 (panel B, D). Bar graphs show cell viability measured using the 3-(4,5-dimethylthiazol-2-yl)-2,5-diphenyltetrazolium bromide (MTT) assay. Data are expressed as optical density (OD) at 595 nm, normalized to control (vehicle). The bar is the standard error of the mean (SEM) on 3 independent determinations. Statistically significant differences were accepted when the p-value was at least ≤0.05.

[4] = tested on: HeLa cells; assay: MTT cytotoxicity assay, HeLa cells; type: cell-based, human; conditions: HeLa cells, 1, 5 and 25 μM, 24 h
Procedure: as §1, §2

[5] = tested on: TRPV4; conditions: cited from earlier work
[6] = tested on: TRPV1; parameters: method as in PMID 30507122; conditions: cited from earlier work

SMILES | IC50 [1] [µM] | activity on rTRPV4 in words [2] | IC50 [2] [µM] | Efficacy % [2] [%] | cytotoxic effect (cell viability, MTT) [3] | cytotoxic effect (cell viability, MTT) [4] | other results
CC1(C)CCC[C@]2(C)[C@@H](CC(=O)NCc3ccc(Cl)c(Cl)c3)[C@](C)(O)CC[C@@H]12 [Compound 6, N-(3,4-dichlorobenzyl)-2-((1R,2R,4aS,8aS)-2-hydroxy-2,5,5,8a-tetramethyldecahydronaphthalen-1-yl)acetamide] | > 100 | potent and selective TRPV4 antagonists | 5.3 ± 0.3 | <10 | neither compound caused statistically-significant cytotoxic effects at any tested concentration | neither compound caused statistically-significant cytotoxic effects at any tested concentration | Efficacy % ([1]; as percent of the effect of ionomycin (4 µM), HEK-293 cells overexpressing hTRPV1, means ± SEM, N >= 3): 16.9 ± 0.3%
CC1(C)CCC[C@]2(C)[C@@H](CC(=O)OCc3ccccc3)[C@](C)(O)CC[C@@H]12 [Compound 18, Benzyl 2-((1R,2R,4aS,8aS)-2-hydroxy-2,5,5,8a-tetramethyldecahydronaphthalen-1-yl)acetate] |  | potent and selective TRPV4 antagonists | 5.41 ± 0.07 | <10 | neither compound caused statistically-significant cytotoxic effects at any tested concentration | neither compound caused statistically-significant cytotoxic effects at any tested concentration | 
CC1(C)CCC[C@]2(C)[C@@H](CCOC(=O)/C=C/c3ccc4c(c3)OCO4)[C@](C)(O)CC[C@@H]12 [Compound 23, 2-((1R,2R,4aS,8aS)-2-hydroxy-2,5,5,8a-tetramethyldecahydronaphthalen-1-yl)ethyl (E)-3-(benzo[d][1,3]dioxol-5-yl)acrylate] | > 100 |  | > 100 | <10 |  |  | melting point: 115 to 116 °C
C=C1CC[C@@H]2[C@](C)(CO)[C@H](O)CC[C@@]2(C)[C@@H]1/C=C/C1=CC(C(C[C@@H]2C(=C)CC[C@@H]3[C@](C)(CO)[C@H](O)CC[C@]32C)C2=CCOC2=O)OC1=O (stereo partly shown) [bisandrographolide A] |  |  |  |  |  |  | EC50 ([5]; read-out: EC50 (TRPV4 agonist)): 0.79 to 0.95 µM
C/C=C(\C)[C@H]1C(C)=C[C@H]2C[C@@H](C)C[C@@H](C(=O)O)[C@@H]2[C@@]1(C)C(=O)c1cccnc1 [onydecalin A] |  |  |  |  |  |  | activity towards TRPV1 in words [6]: partial activity; IC50 ([5]; read-out: IC50 (TRPV4 antagonist)): 45.9 µM
